Assay results: patent US20060281807A1, “Quassinoid compositions for the treatment of cancer and other proliferative diseases” (Tapestry Pharmaceuticals, Inc., priority 2005, published 2006)

Columns and labels:
[1] = test system: SK-N-AS; experiment: MTT cytotoxicity assay (% kill), SK-N-AS; format: cell-based, human; details: 1.0 μg/mL, MTT after five days
Experimental: (§1) The following human tumor cell lines were obtained and cultured in sextuplicate microwells at 37° C. and 5% CO2 in humidified air and in 10% FBS in Eagles MEM: SK—N—FI, SK—N-AS, LS-174T, WiDr, HuTu-80, MCF7, NCI-AR, MES-Sar, and PL-45. Cells from each cell line were separately treated with an amount of one of the compounds of Formula I, II, or III (see Table 1). Cells were exposed to each compound (0.1 μg/mL or 1.0 μg/mL) for one hour or 24 hours, rinsed with drug-free media, and incubated for an additional five days. The number of viable cells after five days was measured using an MTT (3-(4,5-dimethylthiazol-2-yl)-2,5-diphenyltetrazolium bromide) assay (see, e.g., Mosmann, J. Immunol. Methods, 65(1-2), 55-63 (1983)).
(§2) The cytotoxicity of each drug was determined and expressed as the percent of cells killed (“% kill”).

[2] = test system: LS-174T; experiment: MTT cytotoxicity assay (% kill), LS-174T; format: cell-based, human; details: 1.0 μg/mL, MTT after five days
Experimental: as §1, §2

[3] = test system: Colon 38 (murine colon adenocarcinoma); experiment: Disk diffusion assay, zone of inhibition, Colon 38; zone differentials, potency and product; format: cell-based; set-up: key to C38ΔL1210 / C38ΔCFU: difference of zone of inhibition values, in zone units; details: for Sum: C38ΔL1210 plus C38ΔCFU; for C38ΔL1210 / C38ΔCFU: difference between zone of inhibition values; for C38ΔL1210: Colon38 vs L1210 leukemia; for C38ΔCFU: Colon38 vs normal cell CFU-GM; for Product: potency multiplied by zone differentials
Experimental: A disk diffusion assay was performed to define the differential cell killing ability of 15-O-(3′-hydroxy-3′-isopropyl-4′-methylpentanoyl)bruceolide. Seven cell types were assayed: L1210 (ATCC CCL-219) (murine leukemia), CCRF-CEM (ATCC CCL-119) (human leukemia), Colon 38 (murine colon adenocarcinoma), HCT116 (ATCC CCL-247) (human colorectal carcinoma), H125 (human lung carcinoma). The murine and human granulocyte/macrophage progenitor cell line (CFU-GM), served as controls.
Colon 38 cells (about 1 gram) were cut into small fragments in 15 mL of Hank's Balanced Salt Solution (HBSS) over a 100-mesh sieve and gently forced through by the scissors with HBSS constantly perfusing the sieve. The resulting material was then drawn into and out of a 5 mL syringe without a needle to further disperse the cell clumps. The cell solution was diluted and plated in 0.3% agarose in DMEM plus 10% heat-inactivated Bovine Calf Serum (BCS). For plating of all of the cell types (except controls), the 60 mm plates were first prepared with a hard agar bottom layer (0.6% agar in RPMI-1640 plus 15% BCS).
A 15 μl sample of each compound was dropped onto a 6.5 mm disk (Baxter filter disks). The disks were allowed to dry overnight and then placed close to the edge of a petri dish. Depending upon the cell type, the dishes were incubated for 7 to 10 days, and examined by an inverted stereo-microscope (10×) for measurement of the zone of inhibition. The zone of inhibition was measured from the edge of the filter disk to the beginning of normal-sized colony formation. The diameter of the filter disk, 6.5 mm, was arbitrarily taken as a zone of 200 units. Compounds that were selective for killing solid tumors, as compared to leukemia or normal cells (“solid tumor selective”) were defined as those compounds which produced a difference in zones between solid tumor cells and either normal or leukemia cells of at least 250 units. The results of this analysis are set forth in Table 4, which illustrates the relative diameters of the zones of inhibition by various drugs on the growth of the respective cell types at various drug dilutions.
The degree of differential sensitivity of several inventive compounds was compared with respect to the Colon38 cell line, the L1210 cell line, and the control CFU-GM cell lines. The degree of differential sensitivity was estimated by calculating the difference between the zone of inhibition values, as determined in Example 6, for the solid tumor compared to either the leukemia (C38ΔL1210) or normal cell (C38ΔCFU).
The potency of each of several inventive compounds was determined by identifying the dilution required to yield an average zone of inhibition of 500 units for the Colon38 cell type. Then the potency and the zone differentials were multiplied to define a “product” (see Table 5), which can be used to rank the compounds tested for their potential for further development; the greater the product value the greater the probability of useful chemotherapeutic utility.

Row | Structure (SMILES) | % Kill, SK-N-AS ([1]; 1 h exposure) [%] | % Kill, SK-N-AS ([1]; 24 h exposure) [%] | % Kill, LS-174T ([2]; 1 h exposure) [%] | % Kill, LS-174T ([2]; 24 h exposure) [%] | Sum [3] | C38ΔL1210 [3] | C38ΔCFU [3] | Product [3]
1 | CCC(=CC(=O)O[C@H]1C(=O)O[C@@H]2C[C@H]3C(C)=C(O)C(=O)C[C@]3(C)[C@H]3[C@@H](O)[C@H](O)[C@@]4(C(=O)OC)OC[C@]32[C@@H]14)CC [15-O-(3′-ethyl-2′-pentene-oyl)-brucelide] | 0 | 66 | 24 | 64 | – | – | – | –
2 | COC(=O)C12OCC34C(CC5C(C)=C(O)C(=O)CC5(C)C3C(O)C1O)OC(=O)C(OC(=O)OCC1COC(C)(C)O1)C24 (stereo not drawn) [15-O-(solketyloxycarbonyl)-bruceolide] | 0 | 28 | – | – | 950 | 400 | 550 | 1900
3 | COC(=O)[C@@]12OC[C@]34[C@H]([C@@H](O)[C@@H]1O)[C@@]1(C)CC(=O)C(O)=C(C)[C@@H]1C[C@H]3OC(=O)[C@H](OC(=O)CC1(O)CCCC1)[C@@H]24 [15-O-[(1′-hydroxycyclopentyl)-acetyl]-bruceolide] | – | – | 36 | 65 | 1300 | 600 | 700 | 5200
4 | COC(=O)C12OCC34C(CC5C(C)=C(O)C(=O)CC5(C)C3C(O)C1O)OC(=O)C(OC(=O)c1cc(C)oc1C)C24 (stereo not drawn) [15-O-(2′,5′-dimethyl-3′-furoyl)-bruceolide] | 0 | 34 | 12 | 53 | 1050 | 500 | 550 | 4200
5 | COC(=O)C12OCC34C(CC5C(C)=C(O)C(=O)CC5(C)C3C(O)C1OC(=O)OCC1COC(C)(C)O1)OC(=O)C(OC(=O)OCC1COC(C)(C)O1)C24 (stereo not drawn) [12,15-O,O-bis(Solketyloxycarbonyl)-bruceolide] | 3 | 5 | – | – | 1000 | 400 | 600 | 2000
6 | COC(=O)C12OCC34C(CC5C(C)=C(O)C(=O)CC5(C)C3C(O)C1O)OC(=O)C(OC(=O)CC(C)(C)O)C24 (stereo not drawn) [15-O-(3′-hydroxy-3′-methylbutanoyl)-bruceolide] | – | – | 29 | 64 | 950 | 400 | 550 | 2850
7 | COC(=O)C12OCC34C(CC5C(C)=C(O)C(=O)CC5(C)C3C(O)C1OC(=O)C=C(C)C(C)C)OC(=O)C(OC(=O)C=C(C)C(C)C)C24 (stereo not drawn) [12-O-(3,4-dimethyl-2-pentenoyl)-bruceantin] | 0 | 0 | – | – | – | – | – | –
8 | COC(=O)C12OCC34C(CC5C(C)=C(O)C(=O)CC5(C)C3C(O)C1O)OC(=O)C(OC(=O)Cc1ccccc1)C24 (stereo not drawn) [15-O-phenylacetyl bruceolide] | 0 | 38 | 20 | 61 | 1000 | 500 | 500 | 4000
9 | CCCCCC(=O)OC1C(=O)OC2CC3C(C)=C(O)C(=O)CC3(C)C3C(O)C(O)C4(C(=O)OC)OCC23C14 (stereo not drawn) [15-O-hexanoylbruceolide] | 0 | 41 | 19 | 57 | 600 | 400 | 200 | 600
10 | COC(=O)C12OCC34C(CC5C(C)=C(O)C(=O)CC5(C)C3C(O)C1O)OC(=O)C(OC(=O)C=Cc1ccccc1)C24 (stereo not drawn) [15-O-cinnamyl-bruceolide] | 0 | 61 | 16 | 64 | – | – | – | –
11 | CCCCCCCCC=CCCCCCCCC(=O)OC1C(=O)OC2CC3C(C)=C(O)C(=O)CC3(C)C3C(O)C(O)C4(C(=O)OC)OCC23C14 (stereo not drawn) [15-O-(cis-9′-octadecenoyl)-bruceolide] | 0 | 0 | 4 | 13 | – | – | – | –
12 | CCC(O)(CC)CC(=O)OC1C(=O)OC2CC3C(C)=C(O)C(=O)CC3(C)C3C(O)C(O)C4(C(=O)OC)OCC23C14 (stereo not drawn) [15-O-(3′-ethyl-3′-hydroxypentanoyl)-bruceolide] | 6 | 71 | 10 | 50 | 850 | 350 | 500 | 3400
13 | COC(=O)[C@@]12OC[C@]34[C@H]([C@@H](O)[C@@H]1O)[C@@]1(C)CC(=O)C(O)=C(C)[C@@H]1C[C@H]3OC(=O)[C@H](OC(=O)CC(C)(C)C)[C@@H]24 [15-O-(3′,3′-dimethylbutanoyl)-bruceolide] | 0 | 62 | 7 | 60 | 800 | 450 | 350 | 3200
14 | C=CCOC(=O)OC1C(=O)OC2CC3C(C)=C(O)C(=O)CC3(C)C3C(O)C(OC(=O)OCC=C)C4(C(=O)OC)OCC23C14 (stereo not drawn) [12,15-O,O-bis-(allyloxycarbonyl)-bruceolide] | 0 | 2 | – | – | 650 | 300 | 350 | 650
15 | COC(=O)[C@@]12OC[C@]34[C@H]([C@@H](O)[C@@H]1O)[C@@]1(C)CC(=O)C(O)=C(C)[C@@H]1C[C@H]3OC(=O)[C@H](OC(=O)C=C1CCCCC1)[C@@H]24 [15-O-(cyclohexylideneacetyl)-bruceolide] | – | – | 13 | 63 | 700 | 350 | 350 | 2800
